Reference: patent US7569577B2, “Quinazoline derivatives as tyrosine kinase inhibitors” (Astrazeneca AB, priority 2003, dated 2009)

Experiments:
EGFR tyrosine kinase = biological target: T1, EGFR tyrosine kinase (Homo sapiens, UniProt P00533); test: Protein tyrosine kinase phosphorylation assay, Test (a); type: biochemical; details: ATP at Km concentration; read-out: IC50 (nM) Test (a) (Inhibition of EGFR tyrosine kinase protein phosphorylation)
T1 construct: Recombinant intracellular fragments of EGFR, erbB2 and erbB4; made in house; host or cells: baculovirus/Sf21 insect cells (cleared lysate used)
T1 sequence (P00533 669-1210 limits assumed): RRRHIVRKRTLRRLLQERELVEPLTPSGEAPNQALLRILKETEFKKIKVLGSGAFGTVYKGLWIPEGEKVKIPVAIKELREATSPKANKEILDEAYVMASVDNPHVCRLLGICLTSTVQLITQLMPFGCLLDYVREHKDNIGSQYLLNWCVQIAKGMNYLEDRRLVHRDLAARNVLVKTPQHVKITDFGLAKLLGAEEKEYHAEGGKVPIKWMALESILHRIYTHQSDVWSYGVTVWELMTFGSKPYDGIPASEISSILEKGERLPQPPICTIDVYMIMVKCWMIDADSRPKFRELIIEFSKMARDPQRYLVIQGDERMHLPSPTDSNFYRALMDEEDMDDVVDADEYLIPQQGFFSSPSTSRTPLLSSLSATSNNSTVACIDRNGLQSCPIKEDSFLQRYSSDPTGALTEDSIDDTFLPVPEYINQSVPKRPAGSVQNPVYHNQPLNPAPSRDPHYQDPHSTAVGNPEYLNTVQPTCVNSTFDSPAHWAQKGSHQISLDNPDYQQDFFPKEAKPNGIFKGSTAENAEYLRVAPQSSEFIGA
Experimental: This test measures the ability of a test compound to inhibit the phosphorylation of a tyrosine containing polypeptide substrate by EGFR, erbB2 or erbB4 tyrosine kinase enzyme.
Recombinant intracellular fragments of EGFR, erbB2 and erbB4 (accession numbers X00588, X03363 and L07868 respectively) were cloned and expressed in the baculovirus/Sf21 system. Lysates were prepared from these cells by treatment with ice-cold lysis buffer (20 mM N-2-hydroxyethylpiperizine-N′-2-ethanesulfonic acid (HEPES) pH 7.5, 150 mM NaCl, 10% glycerol, 1% Triton X-100, 1.5 mM MgCl2, 1 mM ethylene glycol-bis(β-aminoethyl ether) N′,N′,N′,N′-tetraacetic acid (EGTA), plus protease inhibitors and then cleared by centrifugation.
Constitutive kinase activity of these recombinant proteins was determined by their ability to phosphorylate a synthetic peptide (made up of a random co-polymer of Glutamic Acid, Alanine and Tyrosine in the ratio of 6:3:1). Specifically, Maxisorb™ 96-well immunoplates were coated with synthetic peptide (0.2 μg of peptide in a 200 μl phosphate buffered saline (PBS) solution and incubated at 4° C. overnight). Plates were washed in 50 mM HEPES pH 7.4 at room temperature to remove any excess unbound synthetic peptide. EGFR or erbB2 activities were assessed by incubation in peptide coated plates for 20 minutes at room temperature in 100 mM HEPES pH 7.4 at room temperature, adenosine trisphosphate (ATP) at Km concentration for the respective enzyme, 10 mM MnCl2, 0.1 mM Na3VO4, 0.2 mM DL-dithiothreitol (DTT), 0.1% Triton X-100 with test compound in DMSO (final concentration of 2.5%). Reactions were terminated by the removal of the liquid components of the assay followed by washing of the plates with PBS-T (phosphate buffered saline with 0.5% Tween 20).
The immobilised phospho-peptide product of the reaction was detected by immunological methods. Firstly, plates were incubated for 90 minutes at room temperature with anti-phosphotyrosine primary antibodies that were raised in the mouse (4G10 from Upstate Biotechnology). Following extensive washing, plates were treated with Horseradish Peroxidase (HRP) conjugated sheep anti-mouse secondary antibody (NXA931 from Amersham) for 60 minutes at room temperature. After further washing, HRP activity in each well of the plate was measured colorimetrically using 22′-Azino-di-[3-ethylbenzthiazoline sulfonate (6)] diammonium salt crystals (ABTS™ from Roche) as a substrate.
Quantification of colour development and thus enzyme activity was achieved by the measurement of absorbance at 405 nm on a Molecular Devices ThermoMax microplate reader. Kinase inhibition for a given compound was expressed as an IC50 value. […] The range of phosphorylation was calculated from the positive (vehicle plus ATP) and negative (vehicle minus ATP) control values.

KB cells = test: EGFR driven KB cell proliferation assay, Test (b); type: cell-based; details: Homo sapiens, 96 h, EGF 1 ng/ml, 4 days, MTT
Experimental: This assay measures the ability of a test compound to inhibit the proliferation of KB cells (human naso-pharangeal carcinoma obtained from the American Type Culture Collection (ATCC)).
KB cells were cultured in Dulbecco's modified Eagle's medium (DMEM) containing 10% foetal calf serum, 2 mM glutamine and non-essential amino acids at 37° C. in a 7.5% CO2 air incubator. Cells were harvested from the stock flasks using Trypsin/ethylaminediaminetetraacetic acid (EDTA). Cell density was measured using a haemocytometer and viability was calculated using trypan blue solution before being seeded at a density of 1.25×10^3 cells per well of a 96 well plate in DMEM containing 2.5% charcoal stripped serum, 1 mM glutamine and non-essential amino acids at 37° C. in 7.5% CO2 and allowed to settle for 4 hours.
Following adhesion to the plate, the cells are treated with or without EGF (final concentration of 1 ng/ml) and with or without compound at a range of concentrations in dimethylsulfoxide (DMSO) (0.1% final) before incubation for 4 days. Following the incubation period, cell numbers were determined by addition of 50 μl of 3-(4,5-Dimethylthiazol-2-yl)-2,5-diphenyltetrazolium bromide (MTT) (stock 5 mg/ml) for 2 hours. MTT solution was then tipped off, the plate gently tapped dry and the cells dissolved upon the addition of 100 μl of DMSO.
Absorbance of the solubilised cells was read at 540 nm using a Molecular Devices ThermoMax microplate reader. Inhibition of proliferation was expressed as an IC50 value. […] The range of proliferation was calculated from the positive (vehicle plus EGF) and negative (vehicle minus EGF) control values.

Structure (SMILES) | melting point | IC50 (EGFR tyrosine kinase) | IC50 (KB cells)
COc1cc2c(Nc3ccc(F)c(Cl)c3)ncnc2cc1OC1CCN(C(=O)[C@@H](C)O)CC1 (hydrate or solvate) [Example 23, (2R)-1-[4-({4-[3-Chloro-4-fluoroanilino]-6methoxyquinazolin-7-yl}oxy)piperidin-1-yl]-1-oxopropan-2-ol] | 143.6 °C | – | –
COc1cc2c(Nc3cccc(Cl)c3F)ncnc2cc1O[C@H]1CCCN(C(=O)CN2CCN(C)CC2)C1 [Example 7, N-(3-Chloro-2-fluorophenyl)-6-methoxy-7-({(3S)-1-[(4-methylpiperazin-1-yl)acetyl]piperidin-3-yl}oxy)quinazolin-4-amine] | 120 to 121 °C | – | –
COc1cc2c(Nc3cccc(Cl)c3F)ncnc2cc1OC1CCN(C(=O)[C@@H]2CCCN2C)CC1 (hydrate or solvate) [Example 34, N-(3-chloro-2-fluorophenyl)-6-methoxy-7-{[1-(1-methyl-L-prolyl)piperidin-4-yl]oxy}quinazolin-4-amine] | 193 °C | – | –
COc1cc2c(Nc3ccc(Cl)cc3F)ncnc2cc1OC1CCN(C(=O)[C@H](C)O)CC1 (hydrate or solvate) [Example 32] | 149 °C | – | –
COc1cc2c(Nc3ccc(Cl)cc3F)ncnc2cc1OC1CCN(C(=O)[C@@H](C)O)CC1 (hydrate or solvate) [Example 33, (2R)-1-[4-({4-[4-chloro-2-fluoroanilino]-6-methoxyquinazolin-7-yl}oxy)piperidin-1-yl]-1-oxopropan-2-ol] | 118 °C | – | –

Other lines, results leading:

melting point | IC50 (EGFR tyrosine kinase) | IC50 (KB cells) | Structure (SMILES)
107 to 111 °C | – | – | COc1cc2c(Nc3cccc(Cl)c3F)ncnc2cc1OC1CCN(C(=O)[C@H](C)O)CC1 [Example 4[5], (2S)-1-[4-({4-[3-chloro-2-fluoroanilino]-6-methoxyquinazolin-7-yl}oxy)piperidin-1-yl]-1-oxopropan-2-ol]
189 to 189.5 °C | – | – | COc1cc2c(Nc3cccc(Cl)c3F)ncnc2cc1OC1CCN(C(=O)[C@@H](C)O)CC1 [Example 9, (2R)-1-[4-({4-[3-Chloro-2-fluoroanilino]-6-methoxyquinazolin-7-yl}oxy)piperidin-1-yl]-1-oxopropan-2-ol]
– | 65 nM | 84 nM | COCCC(=O)N1CCC(Oc2cc3ncnc(Nc4cccc(Cl)c4F)c3cc2OC)CC1 [4[3], N-(3-Chloro-2-fluorophenyl)-6-methoxy-7-{[1-(3-methoxypropanoyl)piperidin-4-yl]oxy}quinazolin-4-amine]
– | 30 nM | 37 nM | COc1cc2c(Nc3cccc(Cl)c3F)ncnc2cc1OC1CCN(C(=O)CO)CC1 [4[1], 2-[4-({4-[3-Chloro-2-fluoroanilino]-6-methoxyquinazolin-7-yl}oxy)piperidin-1-yl]-2-oxoethanol]
– | 52 nM | 109 nM | COc1cc2c(Nc3cccc(Cl)c3F)ncnc2cc1OC1CCN(C(=O)CCO)CC1 [4[4], 3-[4-({4-[3-Chloro-2-fluoroanilino]-6-methoxyquinazolin-7-yl}oxy)piperidin-1-yl]-3-oxopropan-1-ol]
– | 41 nM | 55 nM | COCC(=O)N1CCC(Oc2cc3ncnc(Nc4cccc(Cl)c4F)c3cc2OC)CC1 [Example 3, N-(3-Chloro-2-fluorophenyl)-6methoxy-7-{[1-(methoxyacetyl)piperidin-4-yl]oxy}quinazolin-4-amine]
110 to 111 °C | 76 nM | 112 nM | COCCOCC(=O)N1CCC(Oc2cc3ncnc(Nc4cccc(Cl)c4F)c3cc2OC)CC1 [Example 2, N-(3-Chloro-2-fluorophenyl)-6-methoxy-7-({1-[(2-methoxyethoxy)acetyl]piperidin-4-yl}oxy)quinazolin-4-amine]
